In publication PMC9386018, “A lymphatic-absorbed multi-targeted kinase inhibitor for myelofibrosis therapy” (Nature Communications, 2022):

Legend:
[1] = test system: GFP-positive MPL^W515L cells; test: MPL^W515L MF mouse model Study 2: GFP-positive cell frequencies; format: in vivo; conditions: Study 2, MPL^W515L mice, oral 400 mg kg^−1 daily, 14 d
Method: (§1) The human megakaryoblastic cell line, SET-2 (ATCC), was maintained in RPMI 1640 supplemented with 20% FBS and incubated for 16 h at 10^6 cells mL^−1 with LP-182 or vehicle (DMSO; dimethyl sulfoxide), then washed in ice-cold PBS, and collected for flow cytometry analysis. Single-cell suspensions of mouse spleen were prepared from MPL^W515L MF mice (below) in RPMI 1640 supplemented with 5% FCS. Red blood cells were lysed by ammonium chloride-mediated red cell lysis (RCL) buffer and passed through a nylon mesh, and then cells were counted. For intracellular phospho-protein staining, SET-2 or spleen cells were fixed and then permeabilized using BD Phospho-flow fixation buffer and Perm-Buffer III (BD biosciences) according to the manufacturer’s protocol. Intracellular phospho-protein staining was performed using fluorochrome-conjugated antibodies, pAKT (pS473)-Alexa Fluor 647 (MB89-61) or pERK1/2 (pT202/pY204)-Alexa Fluor 647 (20 A). […] Flow cytometry was performed on a FACS Fortessa (Becton, Dickinson and Co.) using FACSDiVa software, and data analyzed using FlowJo software (Tree Star). […]
(§2) Generation of the MPL^W515L mutant MF mouse model was similar to previously described methods. […] Development of MF was evaluated by spleen volumes using MRI beginning ~14 d following bone marrow transplantation (BMT) as outlined below, continuing weekly until end of the study. […]

[2] = test system: pERK1/2 (pT202/pY204) in splenocytes; test: MPL^W515L MF mouse model: pERK1/2 in splenocytes by flow cytometry; format: in vivo; conditions: MPL^W515L mice, oral 400 mg kg^−1 daily, 28 d
Method: as §1, §2

O=C(NOCCOCCOCCOCCC(=O)N1CCN(c2cnc3ccc(-c4cnc(Cl)c(NS(=O)(=O)c5ccc(F)cc5)c4)cc3n2)CC1)c1ccc(F)c(F)c1Nc1ccc(I)cc1F [LP-182, N-(2-(2-(2-(3-(4-(7-(6-chloro-5-((4-fluorophenyl)sulfonamido)pyridin-3-yl)quinoxalin-2-yl)piperazin-1-yl)-3-oxopropoxy)ethoxy)ethoxy)ethoxy)-3,4-difluoro-2-((2-fluoro-4-iodophenyl)amino)benzamide]
GFP-positive MPL^W515L neutrophil frequency [1]: reduced
active ERK1/2 level in splenocytes [2]: reduced active AKT and ERK1/2 levels to those comparable to healthy control mice
